Marks after values point to notes of the source that are not given here.
System: 6-OHDA induced Parkinson's Disease-like Zebrafish Larvae Model
Experiment: Anti-Parkinson's Disease efficacy test in 6-OHDA zebrafish larvae model
Format: in vivo
Conditions: soaking at 1.5 μg/mL, co-treated with 6-OHDA

SMILES: CN1Cc2c(N)cccc2C(c2ccccc2)C1 (centres unmarked) [Nomifensine]
- Anti-Parkinson's Disease Efficacy (Motility Increase Rate): 40.9%*
- Total Distance (mm) (Mean ± SE) (30 minutes, n = 10): 2738 ± 165 mm
